Common to all, as to assay type: in vivo, C57BL/6 mice
The test system of test [1] is coronavirus-induced pulmonary fibrosis model (HcoV-OC43). The test is described as follows: Coronavirus-induced pulmonary fibrosis model. To be noted: 120 mg/kg/d intragastric, 14 days; for Ashcroft scores: coronavirus HcoV-OC43 + bleomycin, lung tissue HE; for IL-1β / IL-6 / NF-κB / TNF-α: serum, HcoV-OC43 + bleomycin, from two weeks after model. In outline: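 C57BL/6 mice (22–25 g, 9 per group) were infected intranasally with HcoV-OC43 on day 1, then given intratracheal bleomycin 5 mg/kg on day 2. Two weeks later, compounds were given intragastrically at 120 mg/kg/d for 14 days. Endpoints: weight, deaths, serum NF-κB, TNF-α, IL-1 and IL-6, lung HE and Ashcroft scoring.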

For test [2], the system named is novel coronavirus-induced pulmonary fibrosis model (COVID-19 novel coronavirus strains). The test is described as follows: Novel coronavirus-induced pulmonary fibrosis model. To be noted: 120 mg/kg/d intragastric, 14 days; for Ashcroft scores: novel coronavirus + bleomycin, lung tissue HE; for IL-1β / IL-6 / NF-κB / TNF-α: serum, COVID-19 novel coronavirus + bleomycin, from two weeks after model.

In test [3] the test system is bleomycin-induced pulmonary fibrosis model. The test is described as follows: Early pulmonary fibrosis: bleomycin-induced model, dosing from one week after modelling. As to conditions: for Leucocyte / Lymphocyte / Neutrophil / Ashcroft scores: early pulmonary fibrosis, 120 mg/kg/d intragastric, 14 days, from one week after model; for Leucocyte / Lymphocyte / Neutrophil: blood, Day 15, twice every day; for Ashcroft scores: lung tissue HE staining; for inhibition (anti-inflammatory) effect on leucocytes, neutrophils and lymphocytes in blood: mice with early pulmonary fibrosis, result in words.

For test [4] the test system is unchanged. The test is described as follows: Comparison with comparative drugs: bleomycin-induced model, hydroxyproline and TGF-β. To be noted: 120 mg/kg/d intragastric, twice every day, 14 days, from two weeks after model; Day 15.
For test [5], the system named is influenza B virus-induced pulmonary fibrosis model (influenza B (H7N9) virus). As to conditions: 120 mg/kg/d intragastric, 14 days; for Ashcroft scores: influenza B virus + bleomycin, lung tissue HE; for IL-1β / NF-κB / TNF-α / IL-6: serum, from two weeks after model; for IL-1β / NF-κB / TNF-α: influenza B (H7N9) + bleomycin; for IL-6: influenza B + bleomycin.

Like-named read-outs stand apart in the source and are kept apart here.

Consider `COc1ncnc2c1ncn2C(C)C` [Hypoxanthine analogue C, reference compound], for which, in test [1] (120 mg/kg/day), the Ashcroft scores is recorded as 6.31, the IL-1β is given as 530.1 pg/mL, the IL-6 is given as 530.9 pg/mL and the NF-κB is given as 729.6 pg/mL. For the same compound, the TNF-α in test [1] (120 mg/kg/day) turned out to be 449.1 pg/mL. In test [2] (120 mg/kg/day), the Ashcroft scores is on record as 6.71, the IL-1β worked out at 572.7 pg/mL, the IL-6 is 543.7 pg/mL and the NF-κB is on record as 739.2 pg/mL. Moreover, the TNF-α in test [2] (120 mg/kg/day) was found to be 542.4 pg/mL. In addition, in test [3] (120 mg/kg/day), the Leucocyte is given as 50.11 10^9/L, the Lymphocyte is on record as 50.06 10^9/L, the Neutrophil is listed as 37.04 10^9/L and the Ashcroft scores came out at 5.46. The “inhibition (anti-inflammatory) effect on leucocytes, neutrophils and lymphocytes in blood” value in test [3] is recorded as “obviously inferior”. Further, in test [4], the “Hydroxyproline in bronchoalveolar lavage fluids” value worked out at 1.12 ± 0.15 µg/mg, the “Hydroxyproline in lung tissues” value stood at 2.85 ± 0.25 µg/mg, the “TGF-β in bronchoalveolar lavage fluids” value was determined as 7.42 ± 1.4 µg/L and the “TGF-β in lung tissues” value came to 63.83 ± 7.52 µg/L. Further, in test [5] (120 mg/kg/day), the Ashcroft scores turned out to be 6.15, the IL-1β came to 241.9 pg/mL, the NF-κB is given as 632.4 pg/mL and the TNF-α stood at 198.9 pg/mL. The IL-6 in test [5] (120 mg/kg/day) was found to be 194.9 pg/mL.
Turning to `COC(=O)c1ccc2c(c1)NC(=O)/C2=C(\Nc1ccc(N(C)C(=O)CN2CCN(C)CC2)cc1)c1ccccc1` [Nintedanib, reference compound], in test [1], the Ashcroft scores stood at 4.11, the IL-1β is given as 525.3 pg/mL, the IL-6 amounted to 421.5 pg/mL and the NF-κB was found to be 521.3 pg/mL. Moreover, in test [1], the TNF-α worked out at 411.3 pg/mL. Besides, in test [2], the Ashcroft scores was determined as 6.04, the IL-1β came out at 561.2 pg/mL, the IL-6 turned out to be 523.7 pg/mL and the NF-κB amounted to 732.7 pg/mL. The TNF-α in test [2] was 539.8 pg/mL. For the same compound, in test [3], the Leucocyte is reported as 33.76 10^9/L, the Lymphocyte is 33.87 10^9/L, the Neutrophil is 31.32 10^9/L and the Ashcroft scores was 3.69. Moreover, the “inhibition (anti-inflammatory) effect on leucocytes, neutrophils and lymphocytes in blood” value in test [3] is recorded as “obviously inferior”. In test [4], the “Hydroxyproline in bronchoalveolar lavage fluids” value was 1.25 ± 0.14 µg/mg, the “Hydroxyproline in lung tissues” value amounted to 2.36 ± 0.12 µg/mg, the “TGF-β in bronchoalveolar lavage fluids” value was determined as 7.11 ± 0.24 µg/L and the “TGF-β in lung tissues” value was 75.32 ± 7.51 µg/L. Also, in test [5], the Ashcroft scores was determined as 4.08, the IL-1β is 166.3 pg/mL, the NF-κB was found to be 529.7 pg/mL and the TNF-α is given as 141.3 pg/mL. Besides, in test [5], the IL-6 is 176.1 pg/mL.

The record behind these values is US20250188082A1, “Use of Hypoxanthine Compound In Preparation of Drug For Treating Pulmonary Fibrosis” (Sichuan Yiasuo Pharmaceutical Technology Co., Ltd., priority 2022, published 2025).
